Columns and labels:
Assay in all cases: relative viability (nuclei count vs DMSO), 5 days (fraction); higher = more cells survive
ABC-1 = system: ABC-1
In short: (§1)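 After 5 days of treatment, lung cancer cells in 1536-well plates were fixed and stained in a single step (final 0.05% Triton X-100, 1% formaldehyde, 1 ug/ml Hoechst) and their nuclei counted on 4× images. Treatment had been applied by pin tool the day after seeding as one drug alone or as a fixed anchor-drug dose with five library-drug doses (not always all listed) in √10 steps. Relative viability is the nuclei count of treated wells divided by that of vehicle wells, and values are medians of duplicate plates.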

CAL-12T = system: CAL-12T
In short: as §1

COR-L 105 = system: COR-L 105
In short: as §1

ChaGo-K-1 = system: ChaGo-K-1
In short: as §1

EMC-BAC-2 = system: EMC-BAC-2
In short: as §1

EPLC-272H = system: EPLC-272H
In short: as §1

HCC-15 = system: HCC-15
In short: as §1

HCC-78 = system: HCC-78
In short: as §1

HOP-62 = system: HOP-62
In short: as §1

LXF-289 = system: LXF-289
In short: as §1

NCI-H1666 = system: NCI-H1666
In short: as §1

NCI-H1755 = system: NCI-H1755
In short: as §1

NCI-H1915 = system: NCI-H1915
In short: as §1

NCI-H1975 = system: NCI-H1975
In short: as §1

NCI-H2023 = system: NCI-H2023
In short: as §1

NCI-H2085 = system: NCI-H2085
In short: as §1

NCI-H2126 = system: NCI-H2126
In short: as §1

NCI-H3122 = system: NCI-H3122
In short: as §1

NCI-H322M = system: NCI-H322M
In short: as §1

NCI-H358 = system: NCI-H358
In short: as §1

NCI-H441 = system: NCI-H441
In short: as §1

UMC-11 = system: UMC-11
In short: as §1

Nc1ccn([C@@H]2O[C@H](CO)[C@@H](O)[C@@H]2O)c(=O)n1 [Cytarabine] + N=C(N)NC(=N)NCCc1ccccc1 [Phenformin] (partner 250 µM)
relative viability (ABC-1; first compound 0.005 µM): 0.238 | relative viability (ABC-1; first compound 0.01581 µM): 0.211 | relative viability (ABC-1; first compound 0.05 µM): 0.265 | relative viability (ABC-1; first compound 0.1581 µM): 0.223 | relative viability (ABC-1; first compound 0.5 µM): 0.174 | relative viability (CAL-12T; first compound 0.005 µM): 0.524 | relative viability (CAL-12T; first compound 0.01581 µM): 0.489 | relative viability (CAL-12T; first compound 0.05 µM): 0.638 | relative viability (CAL-12T; first compound 0.1581 µM): 0.283 | relative viability (CAL-12T; first compound 0.5 µM): 0.18 | relative viability (COR-L 105; first compound 0.005 µM): 0.428 | relative viability (COR-L 105; first compound 0.01581 µM): 0.504 | relative viability (COR-L 105; first compound 0.05 µM): 0.43 | relative viability (COR-L 105; first compound 0.1581 µM): 0.29 | relative viability (COR-L 105; first compound 0.5 µM): 0.259 | relative viability (ChaGo-K-1; first compound 0.005 µM): 0.421 | relative viability (ChaGo-K-1; first compound 0.01581 µM): 0.342 | relative viability (ChaGo-K-1; first compound 0.05 µM): 0.323 | relative viability (ChaGo-K-1; first compound 0.1581 µM): 0.176 | relative viability (ChaGo-K-1; first compound 0.5 µM): 0.181 | relative viability (EMC-BAC-2; first compound 0.005 µM): 0.418 | relative viability (EMC-BAC-2; first compound 0.01581 µM): 0.482 | relative viability (EMC-BAC-2; first compound 0.05 µM): 0.398 | relative viability (EMC-BAC-2; first compound 0.1581 µM): 0.268 | relative viability (EMC-BAC-2; first compound 0.5 µM): 0.196 | relative viability (EPLC-272H; first compound 0.005 µM): 0.249 | relative viability (EPLC-272H; first compound 0.01581 µM): 0.277 | relative viability (EPLC-272H; first compound 0.05 µM): 0.26 | relative viability (EPLC-272H; first compound 0.1581 µM): 0.147 | relative viability (EPLC-272H; first compound 0.5 µM): 0.214 | relative viability (HCC-15; first compound 0.005 µM): 0.454 | relative viability (HCC-15; first compound 0.01581 µM): 0.436 | relative viability (HCC-15; first compound 0.05 µM): 0.516 | relative viability (HCC-15; first compound 0.1581 µM): 0.349 | relative viability (HCC-15; first compound 0.5 µM): 0.31 | relative viability (HCC-78; first compound 0.005 µM): 0.8 | relative viability (HCC-78; first compound 0.01581 µM): 0.629 | relative viability (HCC-78; first compound 0.05 µM): 0.466 | relative viability (HCC-78; first compound 0.1581 µM): 0.363 | relative viability (HCC-78; first compound 0.5 µM): 0.366 | relative viability (HOP-62; first compound 0.005 µM): 0.506 | relative viability (HOP-62; first compound 0.01581 µM): 0.486 | relative viability (HOP-62; first compound 0.05 µM): 0.399 | relative viability (HOP-62; first compound 0.1581 µM): 0.156 | relative viability (HOP-62; first compound 0.5 µM): 0.152 | relative viability (LXF-289; first compound 0.005 µM): 0.413 | relative viability (LXF-289; first compound 0.01581 µM): 0.406 | relative viability (LXF-289; first compound 0.05 µM): 0.341 | relative viability (LXF-289; first compound 0.1581 µM): 0.129 | relative viability (LXF-289; first compound 0.5 µM): 0.0821 | relative viability (NCI-H1666; first compound 0.005 µM): 0.545 | relative viability (NCI-H1666; first compound 0.01581 µM): 0.669 | relative viability (NCI-H1666; first compound 0.05 µM): 0.466 | relative viability (NCI-H1666; first compound 0.1581 µM): 0.401 | relative viability (NCI-H1666; first compound 0.5 µM): 0.396 | relative viability (NCI-H1755; first compound 0.005 µM): 0.621 | relative viability (NCI-H1755; first compound 0.01581 µM): 0.413 | relative viability (NCI-H1755; first compound 0.05 µM): 0.466 | relative viability (NCI-H1755; first compound 0.1581 µM): 0.274 | relative viability (NCI-H1755; first compound 0.5 µM): 0.236 | relative viability (NCI-H1915; first compound 0.005 µM): 0.324 | relative viability (NCI-H1915; first compound 0.01581 µM): 0.328 | relative viability (NCI-H1915; first compound 0.05 µM): 0.329 | relative viability (NCI-H1915; first compound 0.1581 µM): 0.268 | relative viability (NCI-H1915; first compound 0.5 µM): 0.245 | relative viability (NCI-H1975; first compound 0.005 µM): 0.331 | relative viability (NCI-H1975; first compound 0.01581 µM): 0.344 | relative viability (NCI-H1975; first compound 0.05 µM): 0.31 | relative viability (NCI-H1975; first compound 0.1581 µM): 0.193 | relative viability (NCI-H1975; first compound 0.5 µM): 0.177 | relative viability (NCI-H2023; first compound 0.005 µM): 0.287 | relative viability (NCI-H2023; first compound 0.01581 µM): 0.224 | relative viability (NCI-H2023; first compound 0.05 µM): 0.183 | relative viability (NCI-H2023; first compound 0.1581 µM): 0.0883 | relative viability (NCI-H2023; first compound 0.5 µM): 0.0962 | relative viability (NCI-H2085; first compound 0.005 µM): 0.746 | relative viability (NCI-H2085; first compound 0.01581 µM): 0.67 | relative viability (NCI-H2085; first compound 0.05 µM): 0.757 | relative viability (NCI-H2085; first compound 0.1581 µM): 0.413 | relative viability (NCI-H2085; first compound 0.5 µM): 0.362 | relative viability (NCI-H2126; first compound 0.005 µM): 0.472 | relative viability (NCI-H2126; first compound 0.01581 µM): 0.464 | relative viability (NCI-H2126; first compound 0.05 µM): 0.421 | relative viability (NCI-H2126; first compound 0.1581 µM): 0.277 | relative viability (NCI-H2126; first compound 0.5 µM): 0.271 | relative viability (NCI-H3122; first compound 0.005 µM): 0.347 | relative viability (NCI-H3122; first compound 0.01581 µM): 0.323 | relative viability (NCI-H3122; first compound 0.05 µM): 0.293 | relative viability (NCI-H3122; first compound 0.1581 µM): 0.244 | relative viability (NCI-H3122; first compound 0.5 µM): 0.18 | relative viability (NCI-H322M; first compound 0.005 µM): 0.704 | relative viability (NCI-H322M; first compound 0.01581 µM): 0.614 | relative viability (NCI-H322M; first compound 0.05 µM): 0.53 | relative viability (NCI-H322M; first compound 0.1581 µM): 0.372 | relative viability (NCI-H322M; first compound 0.5 µM): 0.337 | relative viability (NCI-H358; first compound 0.005 µM): 0.235 | relative viability (NCI-H358; first compound 0.01581 µM): 0.2 | relative viability (NCI-H358; first compound 0.05 µM): 0.222 | relative viability (NCI-H358; first compound 0.1581 µM): 0.0765 | relative viability (NCI-H358; first compound 0.5 µM): 0.076 | relative viability (NCI-H441; first compound 0.005 µM): 0.79 | relative viability (NCI-H441; first compound 0.01581 µM): 0.655 | relative viability (NCI-H441; first compound 0.05 µM): 0.783 | relative viability (NCI-H441; first compound 0.1581 µM): 0.399 | relative viability (NCI-H441; first compound 0.5 µM): 0.298 | relative viability (UMC-11; first compound 0.005 µM): 0.245 | relative viability (UMC-11; first compound 0.01581 µM): 0.232 | relative viability (UMC-11; first compound 0.05 µM): 0.205 | relative viability (UMC-11; first compound 0.1581 µM): 0.195 | relative viability (UMC-11; first compound 0.5 µM): 0.159
